Results from PubChem BioAssay (NCI).
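96-well plates; 48 h exposure; 5 concentrations. Endpoints by linear interpolation between flanking doses. Not reached: highest tested concentration assigned. Abbreviation: GI50, concentration required for 50% inhibition of growth. At the TGI there is no net growth.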

Legend:
Test in all cases: NCI anticancer screen, dose series, 48 h
786-0 renal = system: 786-0 renal
A549 NSCLC = system: A549 NSCLC
HCC-2998 colon = system: HCC-2998 colon
HT29 colon = system: HT29 colon
PC-3 prostate = system: PC-3 prostate
SK-OV-3 ovarian = system: SK-OV-3 ovarian
SN12C renal = system: SN12C renal
SR leukemia = system: SR leukemia
TK-10 renal = system: TK-10 renal
CAKI-1 renal = system: CAKI-1 renal

| SMILES | GI50 (786-0 renal) | TGI (786-0 renal) | GI50 (A549 NSCLC) | TGI (A549 NSCLC) | GI50 (HCC-2998 colon) | TGI (HCC-2998 colon) | GI50 (HT29 colon) | TGI (HT29 colon) | GI50 (PC-3 prostate) | TGI (PC-3 prostate) | GI50 (SK-OV-3 ovarian) | TGI (SK-OV-3 ovarian) | GI50 (SN12C renal) | TGI (SN12C renal) | GI50 (SR leukemia) | TGI (SR leukemia) | GI50 (TK-10 renal) | TGI (TK-10 renal) | GI50 (CAKI-1 renal) | TGI (CAKI-1 renal) |
| --- | --- | --- | --- | --- | --- | --- | --- | --- | --- | --- | --- | --- | --- | --- | --- | --- | --- | --- | --- | --- |
| CC(=O)O[C@H](C[C@H](C(C)C)N(C)C(=O)[C@@H](NC(=O)[C@H]1CCCCN1C)C(C)C)c1nc(C(=O)N[C@@H](Cc2ccccc2)C[C@H](C)C(=O)O)c(C)s1 | < 0.0025 µM | > 25 µM | 0.00532 µM | > 25 µM | < 0.0025 µM | > 25 µM | < 0.0025 µM | > 25 µM | < 0.0025 µM | > 25 µM | < 0.0025 µM | > 25 µM | < 0.0025 µM | > 25 µM | < 0.0025 µM | > 25 µM | > 25 µM | > 25 µM |  |  |
| C[C@H]1CCC/C=C/[C@@H]2C[C@H](O)C[C@H]2[C@H](O)[C@H](S(=O)c2ccc(O)cc2)CC(=O)O1 (stereo partly drawn) | 0.0251 µM | 0.0793 µM | 0.0422 µM | > 100 µM | 0.0278 µM | 0.0951 µM |  |  | 0.0343 µM |  | < 0.0205 µM |  | 0.0497 µM | 0.489 µM |  |  | 0.0392 µM | 2.18 µM | 0.114 µM |  |
| C=C1C(=O)O[C@@H]2[C@H]1CC[C@H](C)[C@]1(O)CCC(=O)[C@@]21C |  | > 10 µM |  | > 10 µM |  | > 10 µM |  | > 10 µM |  | > 10 µM |  | > 10 µM |  | > 10 µM |  | > 10 µM |  | > 10 µM |  |  |
| Oc1c(Br)cc(Br)cc1CN(Cc1cc(Br)cc(Br)c1O)C1CCCCC1 |  | > 100 µM |  | > 100 µM |  |  |  | 64.8 µM |  | 50.5 µM |  | > 100 µM |  | > 100 µM |  | > 100 µM |  | 61 µM |  | > 100 µM |
| O=C1C(=O)c2cc([N+](=O)[O-])ccc2-c2ccccc21 | 1.97 µM | 3.39 µM | 1.9 µM | 3.56 µM | 1.77 µM | 3.18 µM | 1.95 µM | 3.9 µM | 1.97 µM | 3.72 µM | 1.76 µM | 3.14 µM | 1.66 µM | 3.05 µM |  |  | 1.77 µM | 3.19 µM | 1.67 µM | 3.21 µM |
| CCC1CCc2nc3sc(C(=O)Nc4ccccc4F)c(N)c3cc2C1 (stereo not drawn) | 41.7 µM | > 100 µM | > 100 µM | > 100 µM | > 100 µM | > 100 µM | 0.915 µM | > 100 µM | 18.8 µM | > 100 µM | > 100 µM | > 100 µM | > 100 µM | > 100 µM | 0.284 µM | 38.1 µM |  |  | 0.768 µM | > 100 µM |
| CC(C)(Cl)CCC1=C(Cl)C(=O)c2ccccc2C1=O | 3.41 µM | 10.7 µM | 3.2 µM | 11 µM |  |  | 15.6 µM | 31.5 µM | 2.27 µM | 8.07 µM | 5.48 µM | 17.6 µM | 3.64 µM | 13.5 µM | 2.04 µM | 5.69 µM |  |  | 1.87 µM | 3.46 µM |
| O=c1[nH]cnc2c(C3OC(CO)C(O)C3O)[nH]nc12 (stereo not drawn) |  | > 100 µM |  |  |  | > 100 µM |  | > 100 µM |  | > 100 µM |  | 28.3 µM |  | > 100 µM |  | > 100 µM |  |  |  | > 100 µM |
| Nc1ccccc1NC(=O)c1ccc(CSc2nc(N3CCOCC3)c3cccn3n2)cc1 | 0.988 µM | 5.48 µM | 0.977 µM | > 100 µM | 2 µM | 7.41 µM | 0.411 µM | 4.54 µM | 0.752 µM | 41.4 µM | 0.79 µM | 6.43 µM | 1.38 µM | > 100 µM | 0.301 µM | > 100 µM | 0.163 µM | 1.61 µM |  |  |
| CCN1C(=O)N(CC)C2C1NN=c1s/c(=C3\C(=O)N(CCC(C)C)c4ccccc43)c(=O)n12 (stereo not drawn) | 1.83 µM | 4.5 µM |  |  | 1.92 µM | 4.54 µM |  |  | 2.91 µM | > 100 µM | 2.53 µM | 18 µM | 2.01 µM | 4.99 µM | 0.456 µM | > 100 µM | 9.44 µM | 71.7 µM | 0.686 µM | 4.17 µM |
| CS(=O)(=O)c1ccc(N/N=C/c2c(-c3ccc(S(C)(=O)=O)cc3)[nH]c3ccc(F)cc23)cc1 | 1.69 µM | > 50 µM | 7.98 µM | > 50 µM | 10.8 µM | > 50 µM | 2.08 µM | > 50 µM | 2.18 µM | > 50 µM | 3.27 µM | > 50 µM | 2.97 µM | > 50 µM |  |  | 2.95 µM | > 50 µM | > 50 µM | > 50 µM |
| O=C(O)C1C2C=CC(O2)C1C(=O)Nc1ccccc1 (stereo not drawn) |  | > 100 µM |  | > 100 µM |  |  |  | > 100 µM |  | > 100 µM |  | > 100 µM |  | > 100 µM |  | > 100 µM |  | > 100 µM |  | > 100 µM |
| C#C[C@@]1(O)[C@@H](CO)O[C@@H](n2cc(Cl)c3c(N)ncnc32)[C@@H]1O | 0.322 µM | 1.33 µM |  |  | 0.186 µM | 0.532 µM | 0.0436 µM |  | 0.191 µM | 4 µM | 0.143 µM | 0.517 µM |  |  | 0.073 µM | > 100 µM | 0.317 µM | 1.24 µM |  |  |
